From patent publication US20130202594A1, “ALK1 Antagonists and Their Uses in Treating Renal Cell Carcinoma” (priority 2012, published 2013)
Entries after “also recorded” stand apart in the source; their conditions may differ.

Experiments:
[1] = test system: ocular angiogenesis; test: Mouse corneal micropocket assay; assay type: in vivo; conditions: intraperitoneally; identical weight/weight dosages
Source text: In preferred embodiments, an ALK1 ECD polypeptide binds to one or more of GDF5, GDF6, GDF7, BMP9 and BMP10. […] Binding may be assessed using purified proteins in solution or in a surface plasmon resonance system, such as a Biacore™ system. […] Bioassays for angiogenesis inhibitory activity include the chick chorioallantoic membrane (CAM) assay, the mouse corneal micropocket assay, or an assay known in the art for measuring the effect of administering isolated or synthesized proteins on implanted tumors. The CAM assay is described by O'Reilly, et al., in “Angiogenic Regulation of Metastatic Growth” Cell, 1994; 79 (2):315-328. Briefly, 3 day old chicken embryos with intact yolks are separated from the egg and placed in a petri dish. After 3 days of incubation, a methylcellulose disc containing the protein to be tested is applied to the CAM of individual embryos. After 48 hours of incubation, the embryos and CAMs are observed to determine whether endothelial growth has been inhibited. The mouse corneal micropocket assay involves implanting a growth factor-containing pellet, […] of capillaries that are elaborated in the cornea. Other assays are described in the Examples.
Similar data were obtained when a Matrigel plug impregnated with VEGF was implanted in a non-ocular location.

[2] = target: T1, BMP4 (Homo sapiens, UniProt P12644); test: Biacore binding to hALK1-Fc: BMP4
T1 sequence (P12644 293-408): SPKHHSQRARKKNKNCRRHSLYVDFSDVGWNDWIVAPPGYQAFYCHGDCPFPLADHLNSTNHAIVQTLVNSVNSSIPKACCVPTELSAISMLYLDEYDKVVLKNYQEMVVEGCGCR
Procedure: ALK1 is a type 1 receptor for ligands of the TGFβ family. Multiple members of the TGFβ family were tested for binding to a human ALK1-Fc fusion protein, using a Biacore™ system.

## hALK1-Fc: extracellular domain of human ALK1 (amino acids 22-120) fused to a human IgG1 Fc with a minimal linker (SEQ ID NO:3/14)
[1]
  ocular angiogenesis: significantly inhibited ocular angiogenesis; also recorded: to the same degree as anti-VEGF; also recorded: comparable effects
[2]
  binding to hALK1-Fc: failed to show substantial binding; also recorded: only limited binding
